Reference: patent publication US20230357139A1, “SMALL MOLECULE INHIBITORS OF BACTERIAL TOXINS” (Artizan Biosciences, Inc., priority 2020, published 2023)
Like-named read-outs stand apart in the source and are kept apart here.

How the values were obtained:
[1] = biological target: collagenase H (ColH) (Hathewaya histolytica, UniProt Q46085); assay: biochemical; design: species or system Clostridium histolyticum
[2] = biological target: Gelatinase E (GelE) (Enterococcus faecalis (strain ATCC 700802 / V583), UniProt Q833V7); assay: Gelatinase E activity assay (FRET peptide substrate); type: biochemical; settings: for IC50: Table 11
Gelatinase E (GelE), sequence (Q833V7 193-510 limits assumed): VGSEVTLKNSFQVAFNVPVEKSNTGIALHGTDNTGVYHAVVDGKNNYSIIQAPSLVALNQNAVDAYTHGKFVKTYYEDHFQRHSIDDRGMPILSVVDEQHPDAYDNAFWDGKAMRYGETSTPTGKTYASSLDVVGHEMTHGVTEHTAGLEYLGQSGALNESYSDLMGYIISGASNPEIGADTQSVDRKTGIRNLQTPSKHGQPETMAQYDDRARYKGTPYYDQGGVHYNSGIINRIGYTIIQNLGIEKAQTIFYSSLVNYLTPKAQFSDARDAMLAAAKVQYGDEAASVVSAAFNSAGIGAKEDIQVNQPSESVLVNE
Procedure: Gelatinase E (Gel E) was purified from bacterial culture supernatant from E. faecalis. E. faecalis was cultured aerobically in Todd Hewitt Broth overnight at 37° C. Nucleic acid was precipitated with 0.9% protamine solution, followed by protein precipitation with ammonium sulfate. Resuspended protein pellet was further subjected to purification using FPLC (phenyl Sepharose column). Fractions with gelatinase activity as determined by casein agar assay were pooled and further concentrated.
Different concentrations of test compound were incubated with purified GelE and FRET-based peptide substrate (390 MMP FRET Substrate 1; Anaspec AS-27077) in assay buffer at room temperature for 30 minutes. The fluorescence signal was determined by a plate reader.

[3] = tested on: BFT; assay: E-cadherin release assay (BFT-induced E-cadherin release from HT29 cells); type: cell-based, B. fragilis
Procedure: Test compounds were also screened for their ability to inhibit BFT-induced E-cadherin release from HT29 cells.
Different concentrations of test compounds were pre-incubated with rBFT for one hour at 37° C. The rBFT-compound mixture was then added to HT29 cells and incubated at 37° C. for 18 hours. Following incubation, cell supernatants were harvested and E-cadherin was quantified in the supernatants by ELISA (FIG. 2).

[4] = tested on: recombinant BFT (rBFT); assay: NFF-3 cleavage assay; type: biochemical, B. fragilis
Procedure: A NFF-3 cleavage assay was used to test activity of recombinant BFT, before or after addition of various inhibitors. The NFF-3 cleavage assay was previously described by Goulas et al., PNAS, 2011, 108(5) 1856-1861, which is incorporated by reference herein in its entirety.
Initially, recombinant BFT (rBFT) (0.25, 0.5, 1, 2, 4, 8, or 16 μg/mL) was incubated at 37° C. with the fluorogenic substrate NFF-3 (Cayman Chemical) at a concentration of 2.5 μM, 5 μM, or 10 μM. After 18 hours, fluorescence was measured in a microplate fluorimeter.
Next, rBFT was pre-incubated with one or more test compounds at different concentrations for 30 minutes at 37° C. The rBFT-compound mixture was then added to NFF-3 and incubated for 24 hours at 37° C. Fluorescence was then measured in a microplate fluorimeter.

[5] = tested on: ETBF; assay: ETBF-mediated disease model in mono-colonized germ-free mice; type: in vivo; settings: for lipocalin2 levels: 15-50 mg/kg p.o., QD
Procedure: Test compounds were also screened in vivo. Germ-free (GF) mice were mono-colonized with ETBF on day 0. […] Markers of injury and inflammation (e.g., cecal weight and fecal lipocalin 2) were analyzed on day 4 (FIG. 6A). Sample size was 5-6 mice per group.

[6] = 18 hours, E-cadherin in supernatant by ELISA, read-out: HT29 Cell IC50
[7] = rBFT pre-incubated with compound 30 minutes at 37° C., then NFF-3 for 24 hours, read-out: NFF3 IC50
[8] = ETBF-colonized mice, 50 mg/kg oral BID days 1-3, analyzed day 4

collagenase H (ColH), sequence (Q46085 41-1021 limits assumed): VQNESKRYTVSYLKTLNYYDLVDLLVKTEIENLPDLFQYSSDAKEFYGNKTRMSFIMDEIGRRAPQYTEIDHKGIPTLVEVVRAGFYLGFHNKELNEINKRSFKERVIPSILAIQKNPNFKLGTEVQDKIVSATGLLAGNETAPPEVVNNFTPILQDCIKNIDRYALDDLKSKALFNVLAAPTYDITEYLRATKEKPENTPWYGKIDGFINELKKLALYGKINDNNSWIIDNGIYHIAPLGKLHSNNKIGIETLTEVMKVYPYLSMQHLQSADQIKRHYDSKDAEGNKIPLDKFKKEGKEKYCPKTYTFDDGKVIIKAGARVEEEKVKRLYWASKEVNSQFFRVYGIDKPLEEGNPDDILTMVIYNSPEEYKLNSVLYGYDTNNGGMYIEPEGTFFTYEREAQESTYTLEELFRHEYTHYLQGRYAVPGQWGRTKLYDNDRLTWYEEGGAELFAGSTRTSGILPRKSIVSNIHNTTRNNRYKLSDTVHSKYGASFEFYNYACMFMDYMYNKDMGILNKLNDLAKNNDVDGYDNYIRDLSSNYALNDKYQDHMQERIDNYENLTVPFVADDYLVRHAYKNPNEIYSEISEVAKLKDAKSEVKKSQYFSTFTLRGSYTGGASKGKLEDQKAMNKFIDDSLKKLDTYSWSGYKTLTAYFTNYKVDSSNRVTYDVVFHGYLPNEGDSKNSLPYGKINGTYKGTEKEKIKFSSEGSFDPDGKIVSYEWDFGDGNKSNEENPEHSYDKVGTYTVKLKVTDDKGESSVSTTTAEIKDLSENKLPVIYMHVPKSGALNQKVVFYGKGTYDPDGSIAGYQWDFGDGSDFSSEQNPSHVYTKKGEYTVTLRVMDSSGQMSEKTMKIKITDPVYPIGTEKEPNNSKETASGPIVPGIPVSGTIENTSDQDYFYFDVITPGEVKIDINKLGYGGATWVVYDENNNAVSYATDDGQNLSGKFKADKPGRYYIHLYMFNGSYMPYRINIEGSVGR

In the case of `CCCOc1ccc(S(=O)(=O)N(CC(=O)NO)CC(C)C)cc1` [D], the IC50 ([1]; read-out: ColH IC50) is reported as > 100000 nM and the IC50 [2] is reported as 489 nM.
`COc1ccc(S(=O)(=O)N(CC(=O)NO)CC(F)F)cc1` [P] was tested, and the IC50 ([1]; read-out: ColH IC50) was > 100000 nM and the IC50 [2] was 9090 nM.
With `CC(C)C[C@H](C(=O)NO)N(Cc1ccncc1)S(=O)(=O)c1ccc(O)cc1` [Example 28] the IC50 [3, 6] was 198 nM.
With `CC(C)C[C@H](C(=O)NO)N(Cc1cccnc1)S(=O)(=O)c1cccc(O)c1` [Example 27] the IC50 [3, 6] was > 50000 nM and the IC50 [4, 7] was 5950 nM.
For `CCOc1ccc(S(=O)(=O)N(CC(=O)NO)CC(C)C)cc1` [C], the IC50 ([1]; read-out: ColH IC50) was > 100000 nM and the IC50 [2] was 372 nM.
`O=C(NO)[C@@H](Cc1c[nH]c2ccccc12)N(Cc1cccnc1)S(=O)(=O)c1ccc(O)cc1` [Example 6] showed an IC50 [3, 6] of 1620 nM and an IC50 [4, 7] of 150 nM.
In the case of `CC(C)[C@H](C(=O)NO)N(Cc1cccnc1)S(=O)(=O)c1ccc(O)cc1` [OH-CGS-27023A, 2(R)-[4-hydroxy-N-(3-pyridylmethyl)phenylsulfonamido]-3-methylbutyrohydroxamic acid, reference compound], the IC50 ([3]; FIG. 4, read-out: IC50, inhibition of BFT (E-cadherin release)) is reported as 1990 nM and the IC50 ([4]; Table 9, FIG. 5B, read-out: IC50, inhibition of BFT-induced NFF-3 release) is reported as 366 nM.
`O=C(NO)[C@@H](Cc1ccccc1)N(Cc1cccnc1)S(=O)(=O)c1ccc(O)cc1` [Example 5] was tested, and the IC50 [3, 6] was 4910 nM and the IC50 [4, 7] was 240 nM.
In the case of `CCC[C@H](C(=O)NO)N(Cc1cccnc1)S(=O)(=O)c1ccc(O)cc1` [Example 42], the IC50 [1] is reported as 8780 nM, the lipocalin2 levels [5] is reported as “significantly reduce” and the IC50 [4, 7] is reported as 90 nM.
In the case of `COc1ccc(S(=O)(=O)N(CC(=O)O)Cc2cccnc2)cc1` [I], the IC50 ([1]; read-out: ColH IC50) is reported as > 100000 nM and the IC50 [2] is reported as > 100000 nM.
In the case of `COc1ccc(S(=O)(=O)N(CC(=O)NO)CC(C)C)cc1` [A], the “ColH inhibition” value [1] is reported as “high levels of ColH inhibition”, the IC50 ([1]; read-out: ColH IC50) is reported as 612 nM and the “GelE inhibition” value ([2]; FIG. 7) is reported as “high levels of GelE inhibition”. For the same compound, the IC50 [2] was 202 nM.
`CC(C)CN(CC(=O)NO)S(=O)(=O)c1ccc(OCc2ccc(F)cc2)cc1` [F] was tested, and the IC50 ([1]; read-out: ColH IC50) was > 100000 nM and the IC50 [2] was 649 nM.
In the case of `CSc1ccc(S(=O)(=O)N(CC(=O)NO)CC(C)C)cc1` [M], the IC50 ([1]; read-out: ColH IC50) is reported as > 100000 nM and the IC50 [2] is reported as 257 nM.
For `COc1cccc(S(=O)(=O)N(Cc2cccnc2)[C@H](CC(C)C)C(=O)NO)c1` [Example 31], the IC50 [3, 6] was > 50000 nM and the IC50 [4, 7] was 20100 nM.
`CC[C@H](C(=O)NO)N(Cc1cccnc1)S(=O)(=O)c1ccc(O)cc1` [Example 25] showed an IC50 [3, 6] of 780 nM and an IC50 [4, 7] of 90 nM.
`CC(C)CN(CC(=O)NO)S(=O)(=O)c1ccc(OC(C)C)cc1` [E] was tested, and the IC50 ([1]; read-out: ColH IC50) was > 100000 nM and the IC50 [2] was 1210 nM.
For `CC(C)C[C@H](C(=O)NO)N(Cc1cccnc1)S(=O)(=O)c1ccc(O)cc1` [Example 1, (R)—N-hydroxy-2-((4-hydroxy-N-(pyridin-3-ylmethyl)phenyl)sulfonamido)-4-methylpentanamide], the IC50 [3, 6] was 1520 nM and the IC50 [4, 7] was < 150 nM.
With `COc1ccc(S(=O)(=O)N(CC(=O)NO)CC(C)C)cn1` [L] the IC50 ([1]; read-out: ColH IC50) was > 100000 nM and the IC50 [2] was 336 nM.
With `CC(C)C[C@H](C(=O)NO)N(Cc1cnco1)S(=O)(=O)c1ccc(O)cc1` [Example 32] the IC50 [3, 6] was 5170 nM and the IC50 [4, 7] was 510 nM.
In the case of `COCCOc1ccc(S(=O)(=O)N(CC(=O)NO)CC(C)C)cc1` [G], the IC50 ([1]; read-out: ColH IC50) is reported as > 100000 nM and the IC50 [2] is reported as 443 nM.
For `CSCC[C@H](C(=O)NO)N(Cc1cccnc1)S(=O)(=O)c1ccc(O)cc1` [Example 3], the IC50 [3, 6] was 3840 nM and the IC50 [4, 7] was 240 nM.
In the case of `CC(C)[C@H](C(=O)NO)N(Cc1cccnc1)S(=O)(=O)c1ccc(O)cc1` [OH-CGS-23270A, 2(R)-[4-Hydroxy-N-(3-pyridylmethyl)phenylsulfonamido]-3-methylbutyrohydroxamic acid, reference compound], the “cecal weight compared to vehicle control” value [5, 8] is reported as “significantly increased” and the “fecal lipocalin2 compared to vehicle control” value [5, 8] is reported as “significantly decreased”.
In the case of `COc1ccc(S(=O)(=O)N(Cc2cccnc2)[C@H](Cc2ccc(C(F)(F)F)cc2)C(=O)NO)cc1` [Example 21], the IC50 [3, 6] is reported as > 16000 nM and the IC50 [4, 7] is reported as 2750 nM.
In the case of `COc1ccc(S(=O)(=O)N(Cc2cccnc2)[C@H](Cc2ccccc2)C(=O)NO)cc1` [Example 19], the IC50 [3, 6] is reported as 8260 nM and the IC50 [4, 7] is reported as 1240 nM.
Work on `O=C(NO)[C@@H](Cc1ccc(O)cc1)N(Cc1cccnc1)S(=O)(=O)c1ccc(O)cc1` [Example 4] yielded an IC50 [3, 6] of 6330 nM and an IC50 [4, 7] of 2040 nM.
For `O=C(NO)[C@@H](Cc1ccc(C(F)(F)F)cc1)N(Cc1cccnc1)S(=O)(=O)c1ccc(O)cc1` [Example 20], the IC50 [3, 6] was 7320 nM and the IC50 [4, 7] was 860 nM.
For `C[C@H](O)[C@H](C(=O)NO)N(Cc1cccnc1)S(=O)(=O)c1ccc(O)cc1` [Example 2], the IC50 [3, 6] was 6720 nM and the IC50 [4, 7] was > 1000 nM.
`CC(C)C[C@H](C(=O)NO)N(Cc1ccc(F)cc1)S(=O)(=O)c1ccc(O)cc1` [Example 26] gave an IC50 [1] of 19300 nM and an IC50 [3, 6] of 1280 nM.
`CC[C@H](C(=O)NO)N(CCc1cccnc1)S(=O)(=O)c1ccc(O)cc1` [Example 60, (R)—N-hydroxy-2-((4-hydroxy-N-(2-(pyridin-3-yl)ethyl)phenyl)sulfonamido)butanamide] was tested, and the IC50 [1] was 3820 nM, the lipocalin2 levels [5] was “significantly reduce” and the IC50 [4, 7] was 18.8 nM.
Work on `O=C(CN(Cc1cccnc1)S(=O)(=O)c1ccc(O)cc1)NO` [Example 24] yielded an IC50 [3, 6] of 19100 nM and an IC50 [4, 7] of 1100 nM.
Compound `CC(C)C[C@H](C(=O)NO)N(Cc1cscn1)S(=O)(=O)c1ccc(O)cc1` [Example 30] has an IC50 [3, 6] of 970 nM.
With `CNC(=O)COc1ccc(S(=O)(=O)N(CC(=O)NO)CC(C)C)cc1` [K] the IC50 [1] was > 100000 nM and the IC50 [2] was 512 nM.
With `CC(C)C[C@H](C(=O)NO)N(Cc1ccc2[nH]ccc2c1)S(=O)(=O)c1ccc(O)cc1` [Example 33] the IC50 [1] was 384 nM, the IC50 [3, 6] was 1740 nM and the IC50 [4, 7] was 140 nM.
With `O=C(NO)C(c1ccc(F)cc1)N(Cc1cccnc1)S(=O)(=O)c1ccc(O)cc1` (centres unmarked) [Example 23] the IC50 [3, 6] was > 50000 nM and the IC50 [4, 7] was 300 nM.
In the case of `CCC[C@H](C(=O)NO)N(Cc1ccc2[nH]ccc2c1)S(=O)(=O)c1ccc(O)cc1` [Example 63], the IC50 [1] is reported as 8890 nM.
`O=C(NO)C(c1ccccc1)N(Cc1cccnc1)S(=O)(=O)c1ccc(O)cc1` (centres unmarked) [Example 22] gave an IC50 [3, 6] of 17300 nM and an IC50 [4, 7] of 660 nM.
